US20230146507A1, “N-PHENYL-3-MERCAPTOPROPANAMIDE DERIVATIVES AS METALLO-BETA-LACTAMASE INHIBITORS FOR THE TREATMENT OF BACTERIAL INFECTIONS” (Helmholtz-Zentrum Für Infektionsforschung GmbH, priority 2020, published 2023)

Key:
IMP-7 = IMP-7 (Pseudomonas aeruginosa, UniProt Q93AU3); experiment: In vitro inhibition assay (kinetic fluorescence-based activity assay), IMP-7; format: biochemical; settings: Means and SD of at least two independent experiments
Procedure: (§1) Protein expression and purification. The expression of IMP-7, VIM-1, and NDM-1 was performed according to the protocol previously published by Klingler et al. (Klingler, F. M.; Wichelhaus, T. A.; Frank, D.; Cuesta-Bernal, J.; El-Delik, J.; Müller, H. F.; Sjuts, H.; Gottig, S.; Koenigs, A.; Pos, K. M.; et al. Approved Drugs Containing Thiols as Inhibitors of Metallo-β-Lactamases: Strategy to Combat Multidrug-Resistant Bacteria. J. Med. Chem. 2015, 58 (8), 3626-3630. https://doi.org/10.1021/jm501844d) with slight modifications.
(§2) In vitro inhibition assay. Activity assays for NDM-1, VIM-1, VIM-2 and IMP-7 were carried out, as described by Klingler et al. Final protein concentrations were 0.5 nM (NDM-1), 4.0 nM (VIM-1), and 0.1 nM (IMP-7) in a 50 mM HEPES buffer (pH 7.5, 0.01% Triton X-100) Substrate (Fluorocillin™ (Invitrogen, Darmstadt, Germany) was dissolved in assay buffer to a final concentration of 888 nM. Test compounds were dissolved and pre-diluted in DMSO (final concentration: 1%). In a black polystyrol 96-well plate (Corning) an amount of […] of the respective inhibitor solution at different concentrations was incubated with […] of respective protein containing buffer for 30 minutes at room temperature. […] of substrate solution was added. The readout of the emitted fluorescence was started immediately (45 s for 30 cycles) using a Tecan Infinite F200Pro (Tecan Group Ltd; excitation at 495 nm and emission at 525 nm). Blank controls were performed without enzyme. Positive controls were performed with enzyme but without inhibitor. The inhibitory activity of each test compound was measured in three independent experiments. For calculation of IC50 values, data obtained from measurements with eight different inhibitor concentrations were used. For the evaluation of the sigmoidal dose response equation (variable slope with four parameters) GraphPad Prism 5 (GraphPad Software, La Jolla, Calif., USA) was used.

NDM-1 = target: T1, NDM-1 (Klebsiella pneumoniae, UniProt C7C422); experiment: In vitro inhibition assay (kinetic fluorescence-based activity assay), NDM-1; format: biochemical; settings: Means and SD of at least two independent experiments
T1 construct: made in house
T1 sequence (C7C422 29-270, looked up, species assumed): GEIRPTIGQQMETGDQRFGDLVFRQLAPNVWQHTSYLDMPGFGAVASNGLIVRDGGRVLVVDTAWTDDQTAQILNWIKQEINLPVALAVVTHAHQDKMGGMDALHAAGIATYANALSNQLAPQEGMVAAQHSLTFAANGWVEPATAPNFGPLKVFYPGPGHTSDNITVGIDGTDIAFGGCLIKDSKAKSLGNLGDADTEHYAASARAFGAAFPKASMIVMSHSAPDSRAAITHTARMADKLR
Procedure: as §1, §2

VIM-1 = target: T2, VIM-1 (Pseudomonas aeruginosa, UniProt A0A0F7KYQ8); experiment: In vitro inhibition assay (kinetic fluorescence-based activity assay), VIM-1; format: biochemical; settings: Means and SD of at least two independent experiments
T2 construct: made in house
Procedure: as §1, §2

E. coli VIM-1 (T2544) = experiment: Checkerboard assay with imipenem, E. coli VIM-1 (T2544); format: cell-based
Procedure: (§3) Fractional inhibitory concentration index (FICI). The checkerboard assay was performed to test for synergy in vitro. […] FICIs≤0.5 were defined as synergistic; FICIs from >0.5 to […] were defined as additive; FICIs from 1 to ≤4 were defined as indifferent and FICIs>4 were defined as antagonistic (Doern, C. D. When Does 2 plus 2 Equal 5? A Review of Antimicrobial Synergy Testing. J. Clin. Microbial. 2014, 52 (12), 4124-4128. https://doi.org/10.1128/JCM.01121-14).

E. coli NDM-1 (T2359) = experiment: Checkerboard assay with imipenem, E. coli NDM-1 (T2359); format: cell-based; settings: Table 6
Procedure: as §3

E. coli IMP-1 (T2360) = experiment: Checkerboard assay with imipenem, E. coli IMP-1 (T2360); format: cell-based
Procedure: as §3

[1] = tested on: different isolates from E. coli and P. aeruginosa; experiment: MIC assay, intrinsic antibacterial activity; format: cell-based; settings: compound alone

Sequence of IMP-7 (Q93AU3 entry or part of it): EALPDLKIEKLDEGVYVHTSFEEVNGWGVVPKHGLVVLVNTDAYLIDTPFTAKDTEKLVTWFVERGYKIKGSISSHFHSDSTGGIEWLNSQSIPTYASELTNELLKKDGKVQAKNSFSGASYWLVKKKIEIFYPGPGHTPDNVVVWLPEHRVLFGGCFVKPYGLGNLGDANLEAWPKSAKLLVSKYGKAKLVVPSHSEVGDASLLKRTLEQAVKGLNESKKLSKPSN

Structure (SMILES)	IC50 (IMP-7)	IC50 (NDM-1)	IC50 (VIM-1)	Imipenem MIC (E. coli VIM-1 (T2544); +2 mg/L compound)	Imipenem MIC (E. coli VIM-1 (T2544); +4 mg/L compound)	Imipenem MIC (E. coli VIM-1 (T2544); +8 mg/L compound)	Imipenem MIC (E. coli VIM-1 (T2544); +16 mg/L compound)	Imipenem MIC (E. coli VIM-1 (T2544); +32 mg/L compound)	Imipenem MIC (E. coli VIM-1 (T2544); +64 mg/L compound)	Imipenem MIC (E. coli VIM-1 (T2544); +128 mg/L compound)	Imipenem MIC (E. coli NDM-1 (T2359); +2 mg/L compound)	Imipenem MIC (E. coli NDM-1 (T2359); +4 mg/L compound)	Imipenem MIC (E. coli NDM-1 (T2359); +8 mg/L compound)	Imipenem MIC (E. coli NDM-1 (T2359); +16 mg/L compound)	Imipenem MIC (E. coli NDM-1 (T2359); +32 mg/L compound)	Imipenem MIC (E. coli NDM-1 (T2359); +64 mg/L compound)	Imipenem MIC (E. coli NDM-1 (T2359); +128 mg/L compound)	Imipenem MIC (E. coli IMP-1 (T2360); +2 mg/L compound)	Imipenem MIC (E. coli IMP-1 (T2360); +4 mg/L compound)	Imipenem MIC (E. coli IMP-1 (T2360); +8 mg/L compound)	further results
CS(=O)(=O)Nc1cccc(NC(=O)CCS)c1 [HIPS5585]	1.3 µM	2.2 ± 0.3 µM	1.3 µM	–	–	–	–	–	–	–	–	–	–	–	–	–	–	–	–	–	–
CN1CCN(Cc2ccc(NC(=O)CCS)cc2)CC1 [HIPS5696]	5.8 ± 0.4 µM	6.4 ± 0.6 µM	1.5 ± 0.1 µM	–	–	–	–	–	–	–	–	–	–	–	–	–	–	–	–	–	–
N=C(N)NS(=O)(=O)c1ccc(NC(=O)CCS)cc1 [HIPS5683]	3.3 ± 0.4 µM	2.1 ± 0.1 µM	0.5 µM	32 µg/mL	32 µg/mL	32 µg/mL	32 µg/mL	16 µg/mL	8 µg/mL	2 µg/mL	128 µg/mL	128 µg/mL	128 µg/mL	128 µg/mL	128 µg/mL	64 µg/mL	16 µg/mL	2 µg/mL	1 µg/mL	1 µg/mL	Imipenem MIC (E. coli IMP-1 (T2360); +16 mg/L compound): 1 µg/mL; Imipenem MIC (E. coli IMP-1 (T2360); +32 mg/L compound): 1 µg/mL; Imipenem MIC (E. coli IMP-1 (T2360); +64 mg/L compound): 1 µg/mL; Imipenem MIC (E. coli IMP-1 (T2360); +128 mg/L compound): 0.5 µg/mL; intrinsic antibacterial activity (MIC) [1]: no intrinsic antibacterial activity
O=C(CCS)Nc1cccc(S(=O)(=O)O)c1 [HIPS5672]	3.6 ± 0.3 µM	1.3 µM	1.6 ± 0.1 µM	64 µg/mL	64 µg/mL	64 µg/mL	32 µg/mL	32 µg/mL	8 µg/mL	4 µg/mL	128 µg/mL	128 µg/mL	128 µg/mL	128 µg/mL	128 µg/mL	32 µg/mL	2 µg/mL	2 µg/mL	2 µg/mL	2 µg/mL	Imipenem MIC (E. coli IMP-1 (T2360); +16 mg/L compound): 1 µg/mL; Imipenem MIC (E. coli IMP-1 (T2360); +32 mg/L compound): 1 µg/mL; Imipenem MIC (E. coli IMP-1 (T2360); +64 mg/L compound): 1 µg/mL; Imipenem MIC (E. coli IMP-1 (T2360); +128 mg/L compound): 0.5 µg/mL; intrinsic antibacterial activity (MIC) [1]: no intrinsic antibacterial activity
NC(=O)NS(=O)(=O)c1ccc(NC(=O)CCS)cc1 [HIPS5682]	12.6 ± 2.8 µM	8.6 ± 0.2 µM	2 ± 0.1 µM	32 µg/mL	32 µg/mL	32 µg/mL	32 µg/mL	16 µg/mL	8 µg/mL	2 µg/mL	128 µg/mL	128 µg/mL	128 µg/mL	128 µg/mL	128 µg/mL	64 µg/mL	16 µg/mL	2 µg/mL	2 µg/mL	2 µg/mL	Imipenem MIC (E. coli IMP-1 (T2360); +16 mg/L compound): 1 µg/mL; Imipenem MIC (E. coli IMP-1 (T2360); +32 mg/L compound): 1 µg/mL; Imipenem MIC (E. coli IMP-1 (T2360); +64 mg/L compound): 1 µg/mL; Imipenem MIC (E. coli IMP-1 (T2360); +128 mg/L compound): 1 µg/mL; intrinsic antibacterial activity (MIC) [1]: no intrinsic antibacterial activity
CN(C)S(=O)(=O)c1ccc(NC(=O)CCS)cc1 [HIPS5665]	2.1 ± 0.2 µM	2.8 ± 0.1 µM	0.8 µM	–	–	–	–	–	–	–	–	–	–	–	–	–	–	–	–	–	–
CCN(CC)Cc1cccc(NC(=O)CCS)c1 [HIPS5664]	5.5 ± 0.7 µM	6.5 ± 0.4 µM	0.8 ± 0.1 µM	–	–	–	–	–	–	–	–	–	–	–	–	–	–	–	–	–	–
Nc1ccc(NC(=O)CCS)cc1 [HIPS5666]	2.1 ± 0.3 µM	6.5 ± 0.5 µM	0.5 µM	–	–	–	–	–	–	–	–	–	–	–	–	–	–	–	–	–	–
O=C(CCS)Nc1ccccc1O [HIPS5661]	3.3 ± 0.4 µM	2.2 ± 0.4 µM	0.2 µM	–	–	–	–	–	–	–	–	–	–	–	–	–	–	–	–	–	–
